Reference: the supplement of paper PMC13380429

Columns and labels:
Conditions in all cases: 72 h
Calu-3 [1] = test: drug sensitivity score (DSS) for viability; higher = more toxic; extreme values may be limits of the assay
Caco-2 [2] = test: as above
Vero E6 [3] = test: as above
U2OS [4] = test: as above
HepG2 [5] = test: as above
Calu-3 [6] = test: cell viability relative to DMSO; higher = less toxic
Caco-2 [7] = test: as above
Vero E6 [8] = test: as above
U2OS [9] = test: as above
HepG2 [10] = test: as above
Calu-3 [11] = test: relative viability EC50 (midpoint between 100% and the lowest measured viability); higher = less toxic
Caco-2 [12] = test: as above
Vero E6 [13] = test: as above
U2OS [14] = test: as above
HepG2 [15] = test: as above

Row | SMILES | drug sensitivity score (Calu-3 [1]) | drug sensitivity score (Caco-2 [2]) | drug sensitivity score (Vero E6 [3]) | drug sensitivity score (U2OS [4]) | drug sensitivity score (HepG2 [5]) | cell viability (Calu-3 [6]; 1 nM) | cell viability (Calu-3 [6]; 10 nM) | cell viability (Calu-3 [6]; 100 nM) | cell viability (Calu-3 [6]; 1000 nM) | cell viability (Calu-3 [6]; 10000 nM) | cell viability (Caco-2 [7]; 1 nM) | cell viability (Caco-2 [7]; 10 nM) | cell viability (Caco-2 [7]; 100 nM) | cell viability (Caco-2 [7]; 1000 nM) | cell viability (Caco-2 [7]; 10000 nM) | cell viability (Vero E6 [8]; 1 nM) | cell viability (Vero E6 [8]; 10 nM) | cell viability (Vero E6 [8]; 100 nM) | cell viability (Vero E6 [8]; 1000 nM) | cell viability (Vero E6 [8]; 10000 nM) | cell viability (U2OS [9]; 1 nM) | cell viability (U2OS [9]; 10 nM) | cell viability (U2OS [9]; 100 nM) | cell viability (U2OS [9]; 1000 nM) | cell viability (U2OS [9]; 10000 nM) | cell viability (HepG2 [10]; 1 nM) | cell viability (HepG2 [10]; 10 nM) | cell viability (HepG2 [10]; 100 nM) | cell viability (HepG2 [10]; 1000 nM) | cell viability (HepG2 [10]; 10000 nM) | relative viability EC50 (Calu-3 [11]) | relative viability EC50 (Caco-2 [12]) | relative viability EC50 (Vero E6 [13]) | relative viability EC50 (U2OS [14]) | relative viability EC50 (HepG2 [15])
1 | NC(=O)C1=CN([C@@H]2O[C@H](COP(=O)(O)OP(=O)(O)OC[C@H]3O[C@@H](n4cnc5c(N)ncnc54)[C@H](O)[C@@H]3O)[C@@H](O)[C@H]2O)C=CC1 [coenzyme-I] | 0 | 0 | 0 | 0 | 0 | 91.4% | 92.2% | 100% | 93.2% | 97.3% | 103% | 94.2% | 88.7% | 98.7% | 108% | 93% | 96.4% | 89.3% | 97.2% | 105% | 103% | 97.5% | 101% | 95.9% | 113% | 93.3% | 103% | 89.4% | 111% | 90.2% | > 10 µM | > 10 µM | > 10 µM | > 10 µM | > 10 µM
2 | N[C@@H]1CONC1=O [cycloserine-(D)] | 0 | 0 | 0 | 0 | 0 | 99.6% | 102% | 97.2% | 105% | 96.7% | 89.5% | 96.2% | 100% | 98.7% | 105% | 99.6% | 104% | 98.2% | 99.8% | 103% | 96.7% | 96.3% | 96.4% | 96.7% | 97% | 106% | 101% | 104% | 89.7% | 108% | > 10 µM | > 10 µM | > 10 µM | > 10 µM | > 10 µM
3 | O=C1c2cccc(O)c2C(=O)c2c(O)cccc21 [dantron] | 0.1 | 0 | 0.2 | 0 | 0 | 103% | 97.5% | 96.1% | 98.6% | 88.4% | 107% | 92.6% | 88.7% | 91.2% | 101% | 98.5% | 89.2% | 100% | 93.2% | 83.5% | 94.3% | 98.4% | 97.7% | 103% | 99.8% | 102% | 105% | 105% | 97.9% | 93.8% | > 10 µM | > 10 µM | > 10 µM | > 10 µM | > 10 µM
4 | CC1(C)OC(=O)NC1=O [dimethadione] | 0 | 0 | 0 | 0 | 0 | 92.4% | 107% | 100% | 105% | 109% | 99.9% | 98.9% | 105% | 97.7% | 98.3% | 112% | 108% | 108% | 97.7% | 102% | 101% | 103% | 95% | 98.6% | 96.2% | 106% | 102% | 96.9% | 95.9% | 95.1% | > 10 µM | > 10 µM | > 10 µM | > 10 µM | > 10 µM
5 | CN1CCC(OC(c2ccccc2)c2ccccc2)CC1 [diphenylpyraline] | 0 | 0 | 0 | 0 | 0 | 97.3% | 90% | 98.7% | 94.9% | 95.1% | 96.1% | 96.3% | 97.6% | 102% | 94.6% | 94.6% | 106% | 97.1% | 104% | 109% | 103% | 95.7% | 102% | 95.1% | 98.6% | 89.7% | 98.2% | 90.6% | 103% | 111% | > 10 µM | > 10 µM | > 10 µM | > 10 µM | > 10 µM
6 | C[C@]12CCC(=O)C=C1[C@@H]1C[C@@H]1[C@H]1[C@@H]3[C@@H]4C[C@@H]4[C@@]4(CCC(=O)O4)[C@@]3(C)CC[C@@H]12 [drospirenone] | 0 | 0 | 0 | 0 | 0 | 99.5% | 97.9% | 97.4% | 100% | 120% | 86.1% | 96.5% | 96.1% | 94.1% | 108% | 108% | 102% | 112% | 101% | 89.2% | 98.7% | 102% | 103% | 104% | 88.3% | 99.1% | 102% | 106% | 98.4% | 92.7% | > 10 µM | > 10 µM | > 10 µM | > 10 µM | > 10 µM
7 | O=C1Nc2ccc(Cl)cc2[C@@](C#CC2CC2)(C(F)(F)F)O1 [efavirenz] | 0 | 0 | 0 | 0 | 0 | 97.5% | 107% | 93.8% | 97.7% | 114% | 95.7% | 96.3% | 83.3% | 96.3% | 124% | 98.4% | 93.5% | 91.4% | 90% | 101% | 99.2% | 96.3% | 98.4% | 106% | 94.5% | 92.1% | 86.1% | 95.9% | 83.4% | 94.6% | > 10 µM | > 10 µM | > 10 µM | > 10 µM | > 10 µM
8 | c1cc2c(c(N3CCNCC3)c1)OCCO2 [eltoprazine] | 0 | 0 | 0 | 0 | 0 | 92.4% | 76.5% | 97.7% | 108% | 107% | 105% | 97.1% | 106% | 108% | 101% | 96.5% | 96.5% | 97.9% | 91.9% | 103% | 98.4% | 99.6% | 92.9% | 93.6% | 88.2% | 97% | 101% | 92.2% | 92.4% | 95.7% | > 10 µM | > 10 µM | > 10 µM | > 10 µM | > 10 µM
9 | N=C(N)NCCCC[C@@H]1NC(=O)CCSSC[C@@H](C(N)=O)NC(=O)[C@@H]2CCCN2C(=O)[C@H](Cc2c[nH]c3ccccc23)NC(=O)[C@H](CC(=O)O)NC(=O)CNC1=O [eptifibatide] | 0 | 0 | 0.9 | 0 | 0 | 96.4% | 104% | 100% | 103% | 101% | 94.6% | 99.5% | 85.8% | 95.4% | 95.6% | 105% | 95.2% | 100% | 94.8% | 83.3% | 96.6% | 97.4% | 93.7% | 98.5% | 96% | 97% | 92.6% | 94.7% | 87.1% | 95.5% | > 10 µM | > 10 µM | > 10 µM | > 10 µM | > 10 µM
10 | C#C[C@]1(O)CC[C@H]2[C@@H]3CCC4=CC(=O)CC[C@@H]4[C@H]3C(=C)C[C@@]21CC [etonogestrel] | 0 | 0.6 | 0 | 0 | 0 | 92.7% | 95.1% | 104% | 97.6% | 102% | 87.3% | 75.4% | 98.7% | 81.7% | 104% | 98.2% | 84.7% | 95.6% | 85.2% | 104% | 93.8% | 95.1% | 93.8% | 97.1% | 103% | 95.4% | 97.2% | 94.1% | 90% | 104% | > 10 µM | > 10 µM | > 10 µM | > 10 µM | > 10 µM
11 | COc1ccc(-c2ccc(=N)n(CCCC(=O)O)n2)cc1 [gabazine] | 0 | 0 | 0 | 0 | 0 | 94.8% | 104% | 95.1% | 98% | 93.5% | 111% | 106% | 99.9% | 105% | 103% | 99.5% | 100% | 98.9% | 95.9% | 96% | 102% | 98.5% | 100% | 97.1% | 103% | 91.5% | 97% | 96.8% | 95.4% | 100% | > 10 µM | > 10 µM | > 10 µM | > 10 µM | > 10 µM
